Entries after “also recorded” stand apart in the source; their conditions may differ.
Legend:
[1] = test system: PTOs derived from a melanoma patient (Non-Responder); assay: LIVE/DEAD imaging of tumor organoids derived from a non-responder melanoma patient; type: cell-based, human; details: FIG. 1C
Procedure: (§1) Drug screen output metrics: Drugs will be administered for 48 hours, after which efficacy will be determined as follows; specifically, viability of cells will be assessed by (LIVE/DEAD), number of viable cells alone, number of viable cells versus dead cells, mitochondrial metabolism (MTS), LDH quantification (positive in tumor cells), and IHC (colocalization of fluorescently labeled immune cells with apoptotic, proliferative, and tumor cell markers).

[2] = test system: colorectal tumor-node organoids; assay: Mitochondrial metabolism of colorectal patient tumor organoids with or without matched lymph node immune cells; type: cell-based, human; details: integrated colorectal tumor-node organoids; seen only when immune cells are present; FIG. 1A
Procedure: as §1, with “markers). […] This was not expected given the BRAF wild status of the patient. […] The alternative therapy was identified by PTO screen more than 4 weeks prior to genomic sequencing that verified a MEK mutation, thus qualifying the patient for trametinib.” for “markers).”

PTOs = assay: Exposure of patient tumor organoids (PTOs) to immune checkpoint inhibitors, tolerance; type: cell-based; details: ~100 nM concentrations; unless immune cells are activated
Source text: Potential immune checkpoint inhibitor treatment. […] Concentrations of these two widely-used PD-1 inhibitors and one widely-used CTLA-4 inhibitor will be derived from clinical treatment guidelines and scaled to the volume of the PTO.

[3] = test system: low-grade appendiceal tumor-node organoids; assay: LIVE/DEAD imaging of appendiceal tumor organoids with and without node cells; type: cell-based, human; details: FIG. 1B; for LIVE/DEAD imaging, drug effectiveness: appendiceal tumor organoids with and without node cells; for cell death (LIVE/DEAD staining): low-grade appendiceal tumor-node organoids
Procedure: as §1

melanoma tumor organoid = assay: Drug screen, cell viability of melanoma tumor organoid with or without lymph node cells (FIG. 5); type: cell-based, human; details: decrease observed only when the organoid included both tumor cells and lymph node cells
Procedure: Organoid-device integration: HA and gelatin/collagen components are mixed with cells, as well as a crosslinker and photoinitiator for photopolymerization in situ. Cells are added to the gel precursor preferably at a density of 20 million cells/mL or higher, after which the cell-gel mixture introduced to the microfluidic chambers sequentially and patterning is accomplished using a positive-tone photomask to define shape and location of constructs (FIG. 3B). For the proposed studies, each device will contain series of 2 chamber circuits in which one chamber will be formed a tumor organoid and in the other will be formed a lymph node organoid. Alternatively, both organoids can exist separately, but in the same chamber (FIG. 2). In another form factor, tumor cells and immune cells can be photopatterned into the device as adjacent regions, in which for the immune cells to successfully target the tumor cells, they are forced to recognize tumor cell antigens, activate, and migrate to the tumor region. (FIGS. 4A-4C). […]
Drug screen output metrics: Drug efficacy will be determined by: viability of cells (LIVE/DEAD), number of viable cells alone, number of viable cells versus dead cells, mitochondrial metabolism (MTS), LDH quantification (positive in tumor cells), and IHC (Annexin V vs. KI67-apoptotic vs. proliferative markers).

[4] = test system: 3D patient-specific mixed melanoma/node organoids; assay: Personalized immunotherapy screening on mixed melanoma/node organoids (live/dead staining and metabolism assays); type: cell-based, human; details: fourth patient's mixed melanoma/node organoids; 72 hours
Source text: Methods: Surgically obtained matched melanoma and lymph node biospecimens from the same patient were transferred to the laboratory, washed with saline, antibiotic, and red blood cell lysis buffer. Biospecimens were dissociated, and incorporated into an ECM-based hydrogel system and biofabricated into 3D patient-specific mixed melanoma/node organoids. Cells were not sorted for tumor, as to preserve tumor heterogeneity, including stroma and immune cell components. […] Quantification of live/dead staining and metabolism assays, recorded relative drug efficacy in killing melanoma cells for a particular patient. Light microscopy, IHC and next generation sequencing (NGS) were used to compare tumor melanoma cells with organoid melanoma cells.

melanoma = assay: Clinical response of melanoma patients to treatment; type: in vivo, human; details: stage III and IV melanoma patients of Example 7

Row | Substance | organoid response (LIVE/DEAD staining) [1] | mitochondrial metabolism [2] | effect on the PTOs (PTOs) | LIVE/DEAD imaging, drug effectiveness [3] | cell death (LIVE/DEAD staining) [3] | organoid viability, measured by overall metabolic activity (melanoma tumor organoid) | melanoma killing [4] [%] | patient clinical response (melanoma) | organoid response (LIVE/DEAD staining) ([1]; listed as dabrafenib and trametinib)
1 | ipilimumab [ipilumimab] | did not respond | – | – | – | – | – | – | – | –
2 | nivolumab | – | an increase in mitochondrial metabolism; also recorded: Increased metabolism | no negative effect | effective only when immune cell (lymph) population was incorporated | increases in cell death | significant decrease | 50 | clinically progressed | –
3 | dabrafenib and trametinib [dabrafenic/trametinib] | increased DEAD staining | – | – | – | – | – | – | – | did respond
4 | pembrolizumab | did not respond | – | no negative effect | effective only when immune cell (lymph) population was incorporated | increases in cell death | significant decrease | – | – | –

Reference: patent US12038432B2, “Organoids related to immunotherapy and methods of preparing and using the same” (Wake Forest University Health Sciences, priority 2018, dated 2024)
